The values that follow come from article PMC10166890, “Screening for DAX1/EWS‐FLI1 functional inhibitors identified dihydroorotate dehydrogenase as a therapeutic target for Ewing's sarcoma” (Cancer Medicine, 2023).

In one series the test system is SK‐ES‐1. Briefly: SK‐ES‐1 xenograft in SCID mice. Format: in vivo, mouse. To be noted: 10, 30, or 100 mg/kg orally once daily. As for the experimental part: (§1) All animal studies were performed in accordance with Standards for Proper Conduct sof Animal Experiments at Kyowa Kirin Co., Ltd., under the approval of the company's Institutional Animal Care and Use Committee. Male C.B17/Icr‐scid/scidJcl (SCID) mice (5 weeks old) were purchased from CREA Japan (Tokyo, Japan). K‐733 was suspended in 0.5% (w/v) methylcellulose 400 (MC400; FUJIFILM Wako Pure Chemical) and orally administered to mice once daily. Ewing's cells were suspended in Dulbecco's phosphate‐buffered saline (DPBS; Thermo Fisher Scientific, Waltham, MA, USA) and injected subcutaneously into the ventral side of mice at 5 × 10^6 cells/0.1 mL/mouse for A‐673 and TC‐71 and 1 × 10^7 cells/0.1 mL/mouse for CADO‐ES1 and SK‐ES‐1. In experiments using TC‐71 cells, 0.3 mg of anti‐asialo GM1 antibody (FUJIFILM Wako Pure Chemical) was injected intraperitoneally 1 day before TC‐71 injection. The tumor size and body weight were measured every 3 or 4 days. The tumor volume was calculated using the following equation: Tumor volumemm^3=DL×DS×DS×1/2, where DL and DS represent the long diameter and short diameter, respectively. The pharmacokinetic analysis of K‐733 is described in Materials and Methods S2.

Series [1] concerns the target T1, DHODH (Homo sapiens, UniProt Q02127).
T1 construct: The mitochondria fraction was isolated from A‐673 cells using Q proteome Mitochondria Isolation kit; endogenous in cells; host or cells: A-673 cells, mitochondria fraction
In words: DHODH inhibition assay, A‐673 mitochondria fraction (orotic acid production, LCMSMS). As to conditions: read-out: IC50 for orotic acid production through DHODH. Format: biochemical. As for the experimental part:
The mitochondria fraction was isolated from A‐673 cells using Q proteome Mitochondria Isolation kit (QIAGEN, Hilden, Germany). The protein concentration of the fraction was determined using the DC‐protein assay kit (Bio‐Rad Laboratories, Hercules, CA, USA) with bovine serum albumin (Sigma‐Aldrich) as the standard. […] The reaction was quenched by adding 120 μL of 3 μM 5‐fluoroorotic acid acetonitrile solution. These samples were then centrifuged at 5000 g for 5 min to precipitate proteins, and the supernatant was collected. The samples were diluted 10‐fold with 70% acetonitrile‐water and subjected to liquid chromatography with tandem mass spectrometry (LCMSMS). The analyte was then separated on a hydrophilic interaction chromatography column (PC‐HILIC; 5 μm, 4.6 mm I.D. × 50 mm; Osaka Soda, Osaka, Japan). LCMSMS detection was performed by electrospray ionization in negative ion mode.

In a further series the test system is TC‐71 cells. Briefly: Cell viability assay (XTT), TC‐71 cells. Format: cell-based, human. As to conditions: 72 h. As to the method: AsPC‐1, A‐673, and TC‐71 cells were seeded in 96‐well plates (800 cells/well for AsPC‐1, 2000 cells/well for A‐673, and 400 cells/well for TC‐71) and cultured overnight. Vehicle (DMSO) or a test compound diluted with the medium was then added to the wells (final DMSO concentration was 0.3%), and 72 h later, 2,3‐bis[2‐methoxy‐4‐nitro‐5‐sulfophenynl]‐2H‐tetrazolium‐5‐carboxanilide inner salt (XTT) reagent (Roche Diagnostics, Mannheim, Germany) was added to the medium. After 3‐h incubation at 37°C, the formation of the formazan dye was determined by measuring absorbance at 490 and 650 nm using a SpectraMax 340PC system (Molecular Devices, Sunnyvale, CA, USA).
(Tetrazolium dyes change colour on reduction, which living cells bring about.)

A further series has as its system CADO‐ES1. In words: CADO‐ES1 xenograft in SCID mice. Type of series: in vivo, mouse. As to conditions: 10, 30, or 100 mg/kg orally once daily. As for the experimental part:
as §1

Series [2] has as its system A‐673 cell‐derived tumors. In words: A‐673 xenograft in SCID mice. Format: in vivo, mouse. As for the experimental part: as §1
A further series has as its system DAX1. In words: DAX1 reporter assay (KJMGER8/pAGal9p4‐hDAX1 cells, luciferase). Type of series: cell-based, human. As for the experimental part: pAGal9‐hDAX1 and pAPPRE×10‐Luc + were transfected into KJMGER8 cells by electroporation using a Gene Pulser (Bio‐Rad Laboratories, Hercules, CA, USA), and clones stably expressing the DAX1 and luciferase reporter genes under the control of PPRE were selected. The obtained clone was termed KJMGER8/pAGal9p4‐hDAX1. KJMGER8/pAGal9p4‐hDAX1 cells (1.8 × 10^4 cells/well) were seeded in 384‐well white plates (Greiner Japan, Tokyo, Japan) and cultured in RPMI1640‐IPTSG medium containing 10 nM 17β‐estradiol (E2; Sigma‐Aldrich), dissolved in ethanol, with test compounds at concentration ranges of 0.01 to 10,000 nM or vehicle (dimethyl sulfoxide [DMSO]). The final DMSO concentration was ≤0.3%, and the ethanol concentration was 0.1%. The next day, Blight‐Glo Luciferase Assay Reagent (Promega, Madison, WI, USA) was added to the medium. The luciferase activity was measured using a TopCount NXT system (PerkinElmer, Waltham, MA, USA). IC50 values were calculated using XLfit version 4 (ID Business Solutions, Surrey, UK).
A DAX1 reporter assay system was constructed with the estrogen‐inducible Namalwa cell (KJMGER8 cell) by co‐transfection with pAGal9‐hDAX1 and pAPPRE×10‐Luc+.[18] In the obtained cell line KJMGER8/pAGal9p4‐hDAX1, DAX1 expression is induced by E2 treatment, and the expressed DAX1 increases luciferase expression. Reporter activity was increased by E2 treatment as expected (Figure S2). […] Using this DAX1 reporter assay system, small‐molecule compounds in an in‐house library were screened to obtain DAX1 inhibitors, and K‐234 was identified (Figure 1).
pAGal9-hDAX1 and pAPPRE×10-Luc+ were transfected into KJMGER8 cells by electroporation using a Gene Pulser (Bio-Rad Laboratories, Hercules, CA, USA), and clones stably expressing the DAX1 and luciferase reporter genes under the control of PPRE were selected. The obtained clone was termed KJMGER8/pAGal9p4-hDAX1. KJMGER8/pAGal9p4-hDAX1 cells (1.8×10^4 cells/well) were seeded in 384-well white plates (Greiner Japan, Tokyo, Japan) and cultured in RPMI1640-IPTSG medium containing 10 nM 17β-estradiol (E2; Sigma-Aldrich), dissolved in ethanol, with test compounds at concentration ranges of 0.01 to 10000 nM or vehicle (dimethyl sulfoxide [DMSO]). The final DMSO concentration was ≤0.3%, and the ethanol concentration was 0.1%. The next day, Blight-Glo Luciferase Assay Reagent (Promega, Madison, WI, USA) was added to the medium. The luciferase activity was measured using a TopCount NXT system (PerkinElmer, Waltham, MA, USA). IC50 values were calculated using XLfit version 4 (ID Business Solutions, Surrey, UK)

Series [3] has as its target T2, DHODH (Mus musculus, UniProt O35435).
T2 construct: IC50 value for the mouse liver mitochondrial fraction; from tissue; host or cells: mouse liver mitochondria
Briefly: DHODH inhibition with mouse liver mitochondria. Type of series: biochemical.

Entries after “also recorded” stand apart in the source; their conditions may differ.

Broadly, the IC50 is the concentration needed to halve the response being measured.

T1 sequence (Q02127 whole entry): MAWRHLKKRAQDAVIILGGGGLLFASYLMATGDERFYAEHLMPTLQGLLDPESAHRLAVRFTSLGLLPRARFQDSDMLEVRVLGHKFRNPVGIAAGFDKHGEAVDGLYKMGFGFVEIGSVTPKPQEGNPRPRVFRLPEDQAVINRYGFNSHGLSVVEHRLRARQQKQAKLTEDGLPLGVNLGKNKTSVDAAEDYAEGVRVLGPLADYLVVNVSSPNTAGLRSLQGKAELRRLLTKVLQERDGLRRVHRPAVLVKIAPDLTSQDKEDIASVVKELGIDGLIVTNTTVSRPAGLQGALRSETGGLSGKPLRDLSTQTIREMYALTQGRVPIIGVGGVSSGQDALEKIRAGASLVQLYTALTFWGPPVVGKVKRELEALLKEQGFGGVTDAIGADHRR
T2 sequence (O35435 whole entry): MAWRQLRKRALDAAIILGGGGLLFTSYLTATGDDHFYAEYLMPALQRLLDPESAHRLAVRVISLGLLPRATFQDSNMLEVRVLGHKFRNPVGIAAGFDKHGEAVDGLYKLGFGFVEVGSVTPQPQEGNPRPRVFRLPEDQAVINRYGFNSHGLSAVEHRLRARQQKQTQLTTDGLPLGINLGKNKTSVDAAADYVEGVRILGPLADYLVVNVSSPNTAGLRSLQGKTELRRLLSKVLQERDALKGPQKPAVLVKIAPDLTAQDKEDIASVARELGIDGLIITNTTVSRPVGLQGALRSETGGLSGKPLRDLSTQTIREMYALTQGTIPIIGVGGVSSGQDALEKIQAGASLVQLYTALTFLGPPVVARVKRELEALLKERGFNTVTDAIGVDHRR

With `Cc1nc(-c2ccc(C3c4[nH]c5ccc(Cl)cc5c4CCN3C(=O)Oc3ccccc3)cc2)no1` (stereo not shown) [K-733, phenyl 6‐chloro‐1‐(4‐(5‐methyl‐1,2,4‐oxadiazol‐3‐yl)phenyl)‐1,3,4,9‐tetrahydro‐2H‐pyrido[3,4‐b]indole‐2‐carboxylate], the “Tumor growth, SK‐ES‐1 xenograft” value in the series on SK‐ES‐1 was “reduced dose‐dependently”. Moreover, the 50% inhibitory concentration (IC50) at DHODH [1] stood at 0.953 nM; in the series with DAX1 (Homo sapiens, KJMGER8/pAGal9p4‐hDAX1 cells, 10 nM E2, overnight, read-out: IC50 for inhibition of DAX1 reporter activity), 9.01 nM; on DHODH [3], 120 nM. Also, the “Cell viability of TC‐71 cells” value with TC‐71 cells was “decreased the viability”. For the same molecule, the “Tumor growth, CADO‐ES1 xenograft” value in the series with CADO‐ES1 is on record as “reduced dose‐dependently”. Also, the “Treatment per control ratio (T/C), greatest change” value in series [2] (100 mg/kg orally once daily, A‐673 tumors) is recorded as 0.38. The “Tumor volume, A‐673 xenograft” value in series [2] (10, 30, or 100 mg/kg orally once daily up to 14 days) is listed as “reduced; also recorded: inhibited tumor growth”. Also, in series [2] (A‐673‐bearing mice, up to 100 mg/kg orally once daily), the Body weight entry is recorded as “without a body weight loss; also recorded: without affecting body weight gain”. In addition, the “Effect of uridine addition on inhibition of DAX1 reporter activity” value with DAX1 (uridine 100 μM, overnight) is “completely abrogated”.
